Data reported in patent US8153693B2, “Compounds for the selective treatment of the intestinal immuno-inflammatory component of the celiac disease” (Giuliani International Limited, priority 2007, dated 2012).
“Also recorded” adds a separate entry of the source.

Legend:
[1] = test system: PPARγ; assay: PPARγ expression by western blot in HT-29 cells; format: cell-based; details: for induction of PPARγ expression at the protein levels (in words): HT-29 cell line; for mean induction of PPARγ protein levels quantified by western blot: cells treated during 24 hours
Procedure: (§1) The colon cell line HT-29 STD (ATCC HTB-38) was routinely grown in DMEM supplemented with 10% heat-FCS, and antibiotics. Cells were grown in monolayers, incubated at 37° C. in 5% CO2 and 95% relative humidity.
The total proteins were obtained by cell homogenization in an extraction buffer consisting of PBS with 2% Triton™, Phenyl Methyl Sulphonyl Fluoride (PMSF) 100 mM and a classical protease inhibitor cocktail. The total proteins were then separated by polyacrylamide gel electrophoresis and electroblotted. Polyvinylidendifluoride (PVDF) membranes were incubated overnight with rabbit polyclonal primary antibody directed against PPARγ (dilution 1/500, TEBU, Le Perray en Yveline, France). β-actin was detected using a rabbit monoclonal primary antibody diluted at 1/10,000 (Sigma). Immunodetection with a secondary peroxidase-conjugated antibody (1/1000, Dako™, Trappes, France) and chemiluminescence was performed according to the manufacturer's protocol (ECL™, Amersham Pharmacia Biotech™, Orsay, France). Optical density values of PPARγ were given for each condition in proportion to the quantity of the internal control β-actin in the same sample.

[2] = target: T1, PPARγ (Homo sapiens, UniProt P37231); assay: PPARγ activation, PPRE luciferase reporter in transfected HT-29 STD cells (Example 5); format: cell-based; details: 30 mM; for increase of the reporter gene activity: 24 hours, versus non-stimulated cells
T1 construct: HT-29 STD cells were transiently transfected using the Effectene™ transfection reagent; endogenous in cells; host or cells: HT-29 STD (ATCC HTB-38)
T1 sequence (P37231 1-505): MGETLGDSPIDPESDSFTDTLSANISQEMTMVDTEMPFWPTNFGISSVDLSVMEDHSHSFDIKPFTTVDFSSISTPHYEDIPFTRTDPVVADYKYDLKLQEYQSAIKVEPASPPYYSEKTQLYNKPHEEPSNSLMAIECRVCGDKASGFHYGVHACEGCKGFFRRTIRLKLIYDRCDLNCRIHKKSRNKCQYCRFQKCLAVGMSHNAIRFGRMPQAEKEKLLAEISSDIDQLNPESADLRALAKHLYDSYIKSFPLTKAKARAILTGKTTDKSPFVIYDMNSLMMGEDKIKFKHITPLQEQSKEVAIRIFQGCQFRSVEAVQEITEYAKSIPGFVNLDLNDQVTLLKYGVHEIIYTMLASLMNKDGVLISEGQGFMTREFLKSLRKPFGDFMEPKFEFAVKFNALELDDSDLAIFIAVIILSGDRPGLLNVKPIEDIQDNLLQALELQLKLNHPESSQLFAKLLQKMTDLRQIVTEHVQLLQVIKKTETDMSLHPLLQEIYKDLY
Procedure: as §1
HT-29 STD cells were transiently transfected using the Effectene™ transfection reagent (Qiagen™) according to instructions from the manufacturer. To test PPARγ activation, we performed transfection with 500 ng of a minimal promoter construct containing two copies of PPRE obtained from the cytochrome p450 4A (2×CYP). The renilla luciferase plasmid (0.1 μg/well) was also transfected as an internal control for monitoring transfection efficiency and for normalizing the firefly luciferase activity. Transfected cells were left for 48 hours incubation at 37° C. […] The pH of the drug solutions was adjusted to 7.4 with NaOH. Total cell extracts were prepared using the Passive Lysis Buffer (Promega™, Madison, Wis.). Luciferase activity was assayed in 20 μl of the extract using the Promega™ Dual Luciferase assay system according to the manufacturer's protocol. Transfections were assayed in triplicate in at least three separate experiments. The luciferase activity was expressed as fold of the activity obtained in cells treated with the different molecules divided by luciferase activity from non-stimulated cells.
We investigated PPARγ transcriptional activity by transient transfections of epithelial cells with the renilla luciferase PPRE plasmids. Cells were stimulated with the different molecules during 24 hours.

[3] = test system: HT-29 STD cells; assay: Detection of apoptosis, TUNEL assay; format: cell-based; details: 30 mM, 24 h
Procedure: (§2) After 24 h of culture, HT-29 STD cells were treated during 24 h with the compounds A, B, C, D, F, at a concentration of 30 mM. […] The pH of the drug solutions was adjusted to 7.4 with NaOH. Cells undergoing apoptosis were identified by enzymatic labelling of DNA strands using a terminal transferase dUTP nick end labelling assay (TUNEL assay, Roche Diagnostics™, Meylan, France). Counts of at least 500 cells/sample were systematically performed blindly in one experiment. The results were expressed as the mean±SEM of the number of stained cells.

[4] = test system: HT-29 STD cells; assay: Cytotoxic effect on epithelial cells seen in the HT-29 experiments; format: cell-based; details: 30 mM
Procedure: After 24 h of culture, HT-29 STD cells were treated during 24 h with the compounds A, B, C, D and F, at 30 mM. […] The pH of the drug solutions was adjusted to 7.4 with NaOH. Cells were fixed in PFA 4%, permeabilized in PBS containing 0.1% Triton X-100™ at 4° C. and then incubated with goat normal serum and blocking buffer (1% BSA in PBS) to minimize non-specific adsorption of the antibody.
as §2

[5] = Solubility of the molecules in the cell experiments; format: physicochemical; details: reason for exclusion from the cell experiments

SMILES | induction of PPARγ expression at the protein levels (in words) [1] | mean induction of PPARγ protein levels quantified by western blot [1] [fold] | cytotoxic effect on epithelial cells [4] | further results
Nc1cc2c(c(C(=O)O)c1)OCC2 [C] | induce PPARγ expression | 2 | – | PPARγ activation (in words) [2]: induce PPARγ activation; increase of the reporter gene activity [2]: two-fold
CC(C)Oc1ccc(N)cc1C(=O)O [F] | induce PPARγ expression | 2 | – | apoptosis, share of epithelial cells (TUNEL) [3]: 80%; PPARγ activation (in words) [2]: induce PPARγ activation; increase of the reporter gene activity [2]: two-fold
COc1ccc(N)cc1C(=O)NO [A] | – | – | rapid cytotoxic effects; also recorded: direct cytotoxic effects | –
CC1(C)OC(=O)c2cc(N)ccc2O1 [E] | – | – | – | solubility [5]: poor solubility
CC(C)N(c1ccc(O)c(C(=O)O)c1)C(C)C [G] | – | – | rapid cytotoxic effect; also recorded: direct cytotoxic effects | solubility [5]: poor solubility
CCOc1ccc(N)cc1C(=O)NO [Compound D] | induce PPARγ expression | 2 | rapid cytotoxic effect; also recorded: direct cytotoxic effects | –
COc1cc(N)ccc1C(=O)NO [B] | – | – | rapid cytotoxic effects; also recorded: direct cytotoxic effects | –
